Here are results for three compounds from patent publication US7427408B2, “Quorum sensing and biofilm formation” (priority 2002, dated 2008).

A value given as a limit tells only on which side of the number the result lay.

Test [1] relates to S. mutans biofilms (wildtype and luxS mutant). Description: Treatment of in vitro biofilm with SDS (detergent resistance). Format: cell-based, Streptococcus mutans. Conditions: 1% SDS, shaken at 150 rpm for one hour. The protocol: Three samples of wildtype and mutant biofilms grown on glass coverslips were shaken at 150 rpm for one hour. The OD600 of the resulting supernatants were compared.
(§1) Biofilms of S. mutans were grown as follows. Individual sterile culture dishes were filled with 2.5 mL of brain heart infusion broth supplemented with 1% (w/v) sucrose. Next, a sterile 18 mm glass microscope cover slip was added to each dish and the culture dish was covered. Each sample was then inoculated with a defined volume of overnight culture. The dishes were incubated anaerobically at 37° C. overnight.
Biofilms were grown overnight using previously described conditions. For treatment with SDS, cover-slips were removed from overnight incubation and rinsed briefly. These were then placed into a fresh culture dish and 2mL of sterile, 1% (w/v) SDS solution was added to each dish. The biofilms were placed on a standard shaker set at 150 rpm for one hour at room temperature. […] These samples were measured for their OD600 values. […]
(§2) As biofilms are known to be very resistant to detergents and biocides, we were also interested to determine if this property was influenced by the luxS mutation. […] These supernatants were then checked by microscopy to ensure that cells were not clumped, and subsequently, measured for the OD600. […]

Test [2] relates to V. harveyi BB170 (AI-2 reporter strain). Description: AI-2 luminescence reporter assay of S. mutans conditioned media. Type of test: cell-based, Vibrio harveyi. Conditions: S. mutans incubated 3 hours in AB media with sucrose at 1% final concentration. The method, then:
S. mutans was grown and assayed as described in Materials and Methods. Cells were grown overnight and resuspended to an OD600 of 0.4 in reporter assay (AB) media and incubated with aeration for 3 hours at 37° C. One sample was incubated in AB alone, while the other had sucrose added to a final concentration of 1%.
The AI-2 luminescence reporter assay was performed essentially as described (38), with the following modifications. To obtain cell free conditioned media, S. mutans was grown overnight as described. Stationary phase cells were resuspended in AB media to an OD600 of 0.4. Cells were then incubated at 37° C. with aeration for 3 hrs. […]
To determine luminescence, an overnight culture of V. harveyi BB170 was diluted 1:1000 into fresh AB medium and 180 μL of cells was added to each 1.5 mL microfuge tube. […]
To determine levels of background luminescence, a sample containing 200 μL of 1:1000 diluted V. harveyi was also included. […] All samples were measured hourly until peak induction at the 3 hr time point. Measurements were collected using a TD 20/20 luminometer and expressed as arbitrary luminescence units.
Since S. mutans is an acidogenic bacterium, pH readings were taken to ensure that there were no negative effects due to lowered pH.
(Reporter assays use an easily measured gene product as a stand-in for the process of interest.)

Test [3] concerns wildtype S. mutans biofilms. Description: Treatment of in vitro wildtype biofilm with ampicillin. Format: cell-based, Streptococcus mutans. The note with it: 16 hours. The method, then: as §1
Biofilms were grown overnight using previously described conditions. For treatment with SDS, cover-slips were removed from overnight incubation and rinsed briefly. These were then placed into a fresh culture dish and 2mL of sterile, 1% (w/v) SDS solution was added to each dish. The biofilms were placed on a standard shaker set at 150 rpm for one hour at room temperature. Next, supernatant samples were checked at 40× magnification to confirm that cells were fully individualized and not connected in chains. These samples were measured for their OD600 values. For treatment with antibiotics, biofilms were again grown under standard conditions overnight. […]
as §2

As to `CCCCCCCCCCCCOS(=O)(=O)[O-].[Na+]` [SDS], the “OD600 of supernatant, wildtype relative to luxS mutant” value in test [1] is recorded as “about 6 fold”.

As to `OC[C@H]1O[C@@](CO)(O[C@H]2O[C@H](CO)[C@@H](O)[C@H](O)[C@H]2O)[C@@H](O)[C@@H]1O` [sucrose], in test [2], the “luminescence (AI-2 induction) relative to background” value is recorded as “potent reduction in luminescence to below background values”.

For the compound `CC1(C)S[C@@H]2[C@H](NC(=O)[C@H](N)c3ccccc3)C(=O)N2[C@H]1C(=O)O` [ampicillin], the “cells surviving ampicillin treatment” value in test [3] (50 μg/mL ampicillin) is on record as under 1%; in test [3] (500 μg/mL ampicillin) it was “none survived”.
